Common to all, as to format: biochemical
One experiment has as its target trypsin. Briefly: Enzyme selectivity: trypsin (chromogenic substrate S-2222). As to conditions: human enzyme, chromogenic substrate S-2222, 37° C. How it is done: (§1) Determination of Enzyme Selectivity
(§2) Selected compounds were further screened for inhibitory activity against other trypsin-like serine proteases using the appropriate enzyme and chromogenic substrate (Chromogenix AB). The activity against the following human enzymes was tested (substrate in brackets):—plasma kallikrein (S-2302), thrombin (S-2238), plasmin (S-2390) and trypsin (S-2222). The enzyme was incubated at 37° C. with the chromogenic substrate. Residual enzyme activity (initial rate of reaction) was determined by measuring the change in optical absorbance at 405 nm.

A further experiment deals with T1, Human KLK1 (Homo sapiens, UniProt P06870).
T1 construct: purchased Callbiochem (Calbiochem)
The experiment can be described thus: Determination of the IC50 for KLK1 (fluorogenic substrate H-DVal-Leu-Arg-AFC). As to conditions: 37° C. The procedure, abridged:
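Test compound at various concentrations was incubated with human KLK1 and the fluorogenic substrate H-DVal-Leu-Arg-AFC at 37° C. Absorbance change at 410 nm gave the initial reaction rate, from which IC50 was obtained.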

For the next experiment, the target named is plasma kallikrein (Homo sapiens, UniProt P03952). The experiment can be described thus: Enzyme selectivity: plasma kallikrein (chromogenic substrate S-2302). To be noted: chromogenic substrate S-2302, 37° C. As for the experimental part: as §1, §2
Another experiment concerns the target thrombin (Homo sapiens, UniProt P00734). Briefly: Enzyme selectivity: thrombin (chromogenic substrate S-2238). As to conditions: chromogenic substrate S-2238, 37° C. As for the experimental part: as §1, §2
For another experiment, the target named is plasmin (Homo sapiens, UniProt P00747). The experiment can be described thus: Enzyme selectivity: plasmin (chromogenic substrate S-2390). As to conditions: chromogenic substrate S-2390, 37° C. As for the experimental part:
as §1, §2

This note sets out measurements from patent US20100076015A1, “Aminopyridine Derivatives” (VANTIA LIMITED, priority 2008, published 2010).

Some results are limits rather than exact numbers.

T1 sequence (P06870 25-262): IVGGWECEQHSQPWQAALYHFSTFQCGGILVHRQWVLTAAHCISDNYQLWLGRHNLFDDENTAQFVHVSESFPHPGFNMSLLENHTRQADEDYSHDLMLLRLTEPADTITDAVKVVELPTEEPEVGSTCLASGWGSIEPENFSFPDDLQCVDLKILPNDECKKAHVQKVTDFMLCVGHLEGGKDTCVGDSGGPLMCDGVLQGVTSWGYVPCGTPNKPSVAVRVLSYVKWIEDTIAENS
Chain of plasmin (P00747 581-810 limits assumed): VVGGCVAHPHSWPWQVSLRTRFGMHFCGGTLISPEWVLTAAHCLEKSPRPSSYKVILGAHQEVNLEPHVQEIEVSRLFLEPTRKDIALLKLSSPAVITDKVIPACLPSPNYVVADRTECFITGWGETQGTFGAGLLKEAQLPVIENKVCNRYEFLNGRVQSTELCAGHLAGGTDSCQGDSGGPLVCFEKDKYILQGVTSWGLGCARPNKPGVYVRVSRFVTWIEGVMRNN
Chain of plasmin (P00747 97-580 partner limits assumed): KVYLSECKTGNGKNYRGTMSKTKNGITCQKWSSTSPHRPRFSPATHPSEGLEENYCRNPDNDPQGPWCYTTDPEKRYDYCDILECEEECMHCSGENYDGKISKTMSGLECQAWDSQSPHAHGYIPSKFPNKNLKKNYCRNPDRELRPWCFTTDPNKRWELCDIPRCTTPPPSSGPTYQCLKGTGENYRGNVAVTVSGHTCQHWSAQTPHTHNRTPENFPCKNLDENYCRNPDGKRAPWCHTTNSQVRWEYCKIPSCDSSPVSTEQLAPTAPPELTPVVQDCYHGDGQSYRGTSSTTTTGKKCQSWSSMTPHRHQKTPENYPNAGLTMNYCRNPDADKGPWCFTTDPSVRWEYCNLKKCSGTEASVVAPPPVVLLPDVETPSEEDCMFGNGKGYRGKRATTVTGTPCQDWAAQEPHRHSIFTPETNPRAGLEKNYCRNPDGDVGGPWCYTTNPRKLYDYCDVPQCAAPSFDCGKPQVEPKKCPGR
Chain of plasma kallikrein (P03952 20-638): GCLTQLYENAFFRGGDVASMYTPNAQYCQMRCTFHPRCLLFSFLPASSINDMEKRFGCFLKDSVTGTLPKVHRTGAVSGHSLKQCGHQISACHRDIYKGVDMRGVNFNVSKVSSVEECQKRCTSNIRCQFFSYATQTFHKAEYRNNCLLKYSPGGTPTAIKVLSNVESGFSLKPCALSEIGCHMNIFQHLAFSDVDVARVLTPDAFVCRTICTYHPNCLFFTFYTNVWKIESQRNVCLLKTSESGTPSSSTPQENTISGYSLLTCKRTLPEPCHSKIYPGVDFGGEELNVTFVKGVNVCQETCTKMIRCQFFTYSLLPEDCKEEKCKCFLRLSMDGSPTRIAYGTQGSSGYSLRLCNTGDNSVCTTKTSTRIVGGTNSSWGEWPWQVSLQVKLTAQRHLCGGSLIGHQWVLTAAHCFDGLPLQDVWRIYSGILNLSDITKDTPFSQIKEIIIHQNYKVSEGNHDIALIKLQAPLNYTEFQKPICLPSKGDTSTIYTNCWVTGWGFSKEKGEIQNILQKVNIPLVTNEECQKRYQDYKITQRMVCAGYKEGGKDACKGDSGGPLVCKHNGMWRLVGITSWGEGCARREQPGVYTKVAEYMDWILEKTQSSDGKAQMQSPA

As usually defined, the IC50 is the midpoint of a concentration-inhibition curve. On to `Nc1ccc(CNC(=O)[C@H](Cc2cccc3ccccc23)NC(=O)c2ccc[nH]2)cn1` [Example 228, 1H-Pyrrole-2-carboxylic acid {(S)-1-[(6-amino-pyridin-3-ylmethyl)-carbamoyl]-2-naphthalen-1-yl-ethyl}-amide], for which the IC50 was above 10 µM against trypsin; 0.0321 µM against Human KLK1; above 10 µM at plasma kallikrein; above 10 µM on thrombin; above 10 µM at plasmin.

For the compound `Nc1ccc(CNC(=O)[C@H](Cc2cccc(C(F)(F)F)c2)NC(=O)c2ccc[nH]2)cn1` [Example 229, 1H-Pyrrole-2-carboxylic acid [(S)-1-[(6-amino-pyridin-3-ylmethyl)-carbamoyl]-2-(3-trifluoromethyl-phenyl)-ethyl]-amide], the 50% inhibitory concentration (IC50) was above 10 µM at trypsin; 0.0034 µM against Human KLK1; above 10 µM against plasma kallikrein; above 10 µM against thrombin; above 10 µM on plasmin.

For `Cc1cc(C)c(C(=O)N[C@@H](Cc2cccc3ccccc23)C(=O)NCc2ccc(N)nc2)[nH]1` [Example 231, 3,5-Dimethyl-1H-pyrrole-2-carboxylic acid {(S)-1-[(6-amino-pyridin-3-ylmethyl)-carbamoyl]-2-naphthalen-1-yl-ethyl}-amide], the IC50 on trypsin was above 10 µM; at Human KLK1, 0.0031 µM; against plasma kallikrein, above 10 µM; against thrombin it was above 10 µM; against plasmin, above 10 µM.

Turning to `Cc1cc(C)c(C(=O)N[C@@H](Cc2cccc(C(F)(F)F)c2)C(=O)NCc2ccc(N)nc2)[nH]1` [Example 232, 3,5-Dimethyl-1H-pyrrole-2-carboxylic acid [(S)-1-[(6-amino-pyridin-3-ylmethyl)-carbamoyl]-2-(3-trifluoromethyl-phenyl)-ethyl]-amide], the IC50 was above 10 µM against trypsin; 0.0015 µM against Human KLK1; above 10 µM at plasma kallikrein; above 10 µM on thrombin; above 10 µM against plasmin.

As for `Cc1cc(C)c(C(=O)N[C@@H](Cc2ccc(Cl)c(Cl)c2)C(=O)NCc2ccc(N)nc2)[nH]1` [Example 233, 3,5-Dimethyl-1H-pyrrole-2-carboxylic acid [(S)-1-[(6-amino-pyridin-3-ylmethyl)-carbamoyl]-2-(3,4-dichloro-phenyl)-ethyl]-amide], the concentration for half-maximal inhibition (IC50) is above 10 µM against trypsin; 0.0021 µM at Human KLK1; above 10 µM against plasma kallikrein; above 10 µM on thrombin; above 10 µM against plasmin.

In the case of `Cc1cccc(C[C@H](NC(=O)c2[nH]c(C)cc2C)C(=O)NCc2ccc(N)nc2)c1` [Example 234, 3,5-Dimethyl-1H-pyrrole-2-carboxylic acid {(S)-1-[(6-amino-pyridin-3-ylmethyl)-carbamoyl]-2-m-tolyl-ethyl}-amide], the IC50 on trypsin is above 10 µM; against Human KLK1 it was 0.0032 µM; on plasma kallikrein, above 10 µM; on thrombin, above 10 µM; against plasmin it was above 10 µM.

In the case of `Cc1cc(C)c(C(=O)N[C@@H](Cc2cccc(Cl)c2)C(=O)NCc2ccc(N)nc2)[nH]1` [Example 235, 3,5-Dimethyl-1H-pyrrole-2-carboxylic acid [(S)-1-[(6-amino-pyridin-3-ylmethyl)-carbamoyl]-2-(3-chloro-phenyl)-ethyl]-amide], the IC50 was above 10 µM at trypsin; 0.0024 µM on Human KLK1; above 10 µM against plasma kallikrein; above 10 µM against thrombin; above 10 µM against plasmin.

For the compound `Cc1cc(C)c(C(=O)N[C@@H](Cc2ccc(F)cc2)C(=O)NCc2ccc(N)nc2)[nH]1` [Example 242, 3,5-Dimethyl-1H-pyrrole-2-carboxylic acid [(S)-1-[(6-amino-pyridin-3-ylmethyl)-carbamoyl]-2-(4-fluoro-phenyl)-ethyl]-amide], the IC50 on trypsin was above 10 µM; against Human KLK1 it was 0.0044 µM; on plasma kallikrein, above 10 µM; against thrombin, above 10 µM; against plasmin, above 10 µM.

`Cc1cc(C)c(C(=O)N[C@@H](Cc2ccc(F)c(F)c2)C(=O)NCc2ccc(N)nc2)[nH]1` [Example 243, 3,5-Dimethyl-1H-pyrrole-2-carboxylic acid [(S)-1-[(6-amino-pyridin-3-ylmethyl)-carbamoyl]-2-(3,4-difluoro-phenyl)-ethyl]-amide]: the concentration for half-maximal inhibition (IC50) on trypsin is above 10 µM; at Human KLK1, 0.0034 µM; against plasma kallikrein it was above 10 µM; at thrombin, above 10 µM; against plasmin it was above 10 µM.

For `Cc1cc(C)c(C(=O)N[C@@H](Cc2cccc(C(F)(F)F)c2)C(=O)NCc2ccc(N)nc2C)[nH]1` [Example 277, 3,5-Dimethyl-1H-pyrrole-2-carboxylic acid [(S)-1-[(6-amino-2-methyl-pyridin-3-ylmethyl)-carbamoyl]-2-(3-trifluoromethyl-phenyl)-ethyl]-amide], the IC50 against trypsin is above 10 µM; against Human KLK1, 0.0009 µM; on plasma kallikrein, above 10 µM; on thrombin, above 10 µM; at plasmin, above 10 µM.

Turning to `CCN(CC)[C@@H](C)C(=O)N[C@@H](Cc1ccc(F)c(F)c1)C(=O)NCc1ccc(N)nc1` [Example 355, (S)—N-[(S)-1-[(6-Amino-pyridin-3-ylmethyl)-carbamoyl]-2-(3,4-difluoro-phenyl)-ethyl]-2-diethylamino-propionamide], the IC50 is above 10 µM against trypsin; 0.0025 µM against Human KLK1; above 10 µM at plasma kallikrein; above 10 µM against thrombin; above 10 µM against plasmin.

On to `CC1CCCC(C)N1CC(=O)N[C@@H](Cc1ccc(F)c(F)c1)C(=O)NCc1ccc(N)nc1` (stereo partly drawn) [Example 365, (S)—N-(6-Amino-pyridin-3-ylmethyl)-3-(3,4-difluoro-phenyl)-2-[2-(2,6-dimethyl-piperidin-1-yl)-acetylamino]-propionamide], for which the IC50 is above 10 µM at trypsin; 0.0025 µM at Human KLK1; above 10 µM against plasma kallikrein; above 10 µM against thrombin; above 10 µM on plasmin.

Consider `CC(C)N(C)[C@@H](C)C(=O)N[C@@H](CC1CCCCC1)C(=O)NCc1ccc(N)nc1` [Example 381, (S)—N-{(S)-1-[(6-Amino-pyridin-3-ylmethyl)-carbamoyl]-2-cyclohexyl-ethyl}-2-(isopropyl-methyl-amino)-propionamide], for which the IC50 is above 10 µM on trypsin; 0.0011 µM against Human KLK1; above 10 µM on plasma kallikrein; above 10 µM against thrombin; above 10 µM at plasmin.

As to `CCN(CC)[C@@H](C)C(=O)N[C@@H](CC1CCCCC1)C(=O)NCc1ccc(N)nc1` [Example 390, (S)—N-{(S)-1-[(6-Amino-pyridin-3-ylmethyl)-carbamoyl]-2-cyclohexyl-ethyl}-2-diethylamino-propionamide], the IC50 is above 10 µM against trypsin; 0.0027 µM on Human KLK1; above 10 µM against plasma kallikrein; above 10 µM at thrombin; above 10 µM against plasmin.

Consider `CCC(C)[C@H](C(=O)N[C@@H](Cc1ccc(Cl)c(Cl)c1)C(=O)NCc1ccc(N)nc1)N(C)C` (stereo partly drawn) [Example 398, (R)-2-Dimethylamino-3-methyl-pentanoic acid [(S)-1-[(6-amino-pyridin-3-ylmethyl)-carbamoyl]-2-(3,4-dichloro-phenyl)-ethyl]-amide], for which the IC50 was above 10 µM against trypsin; 0.00082 µM on Human KLK1; above 10 µM against plasma kallikrein; above 10 µM against thrombin; above 10 µM against plasmin.

For the compound `CN(C)[C@H](Cc1ccccc1)C(=O)N[C@@H](Cc1ccc(Cl)c(Cl)c1)C(=O)NCc1ccc(N)nc1` [Example 400, (R)—N-[(S)-1-[(6-Amino-pyridin-3-ylmethyl)-carbamoyl]-2-(3,4-dichloro-phenyl)-ethyl]-2-dimethylamino-3-phenyl-propionamide], the IC50 against trypsin is above 10 µM; at Human KLK1, 0.0017 µM; against plasma kallikrein, above 10 µM; against thrombin, above 10 µM; on plasmin, above 10 µM.

As to `CC(C)N(C)[C@@H](C)C(=O)N(C)[C@@H](CC1CCCCC1)C(=O)NCc1ccc(N)nc1` [Example 437, (S)—N-{(S)-1-[(6-Amino-pyridin-3-ylmethyl)-carbamoyl]-2-cyclohexyl-ethyl}-2-(isopropyl-methyl-amino)-N-methyl-propionamide], the IC50 against trypsin is above 10 µM; on Human KLK1, 0.0042 µM; against plasma kallikrein, above 10 µM; against thrombin, above 10 µM; against plasmin, above 10 µM.
